Results taken from BigSolDB 2.1.

COc1ccc(Cl)cc1C(=O)NCCc1ccc(S(=O)(=O)NC(=O)NC2CCCCC2)cc1
solubility (mole fraction)
Conditions | 283.15 K | 288.15 K | 293.15 K | 298.15 K | 303.15 K | 308.15 K | 313.15 K | 318.15 K | 323.15 K
in acetone | 0.000443 | 0.000559 | 0.000701 | 0.00088 | 0.00112 | 0.0014 | 0.00175 | 0.00219 | 0.00269
in ethanol | 0.000103 | 0.000145 | 0.000196 | 0.000259 | 0.000333 | 0.000437 | 0.00062 | 0.000893 | 0.00122
in ethyl acetate | 8.63e-05 | 0.000115 | 0.000146 | 0.000186 | 0.000236 | 0.000307 | 0.000394 | 0.000511 | 0.000647
in isopropanol | 7.96e-05 | 9.98e-05 | 0.00013 | 0.000176 | 0.000216 | 0.000286 | 0.000422 | 0.000607 | 0.000892
in methanol | 0.000129 | 0.000172 | 0.00022 | 0.0003 | 0.000378 | 0.000477 | 0.00066 | 0.00103 | 0.00137
in water | 8.38e-08 | 8.83e-08 | 1.05e-07 | 1.28e-07 | 1.64e-07 | 2.3e-07 | 3.24e-07 | 4.54e-07 | 7.84e-07
